This is an account of results in ChEMBL document CHEMBL3632489, “Inhibitory kinetics of novel 2,3-dihydro-1H-inden-1-one chalcone-like derivatives on mushroom tyrosinase” (Bioorg Med Chem Lett, 2015).

Assay [1] concerns the target T1, Tyrosinase (Agaricus bisporus) (UniProt O42713).
T1 sequence (whole entry): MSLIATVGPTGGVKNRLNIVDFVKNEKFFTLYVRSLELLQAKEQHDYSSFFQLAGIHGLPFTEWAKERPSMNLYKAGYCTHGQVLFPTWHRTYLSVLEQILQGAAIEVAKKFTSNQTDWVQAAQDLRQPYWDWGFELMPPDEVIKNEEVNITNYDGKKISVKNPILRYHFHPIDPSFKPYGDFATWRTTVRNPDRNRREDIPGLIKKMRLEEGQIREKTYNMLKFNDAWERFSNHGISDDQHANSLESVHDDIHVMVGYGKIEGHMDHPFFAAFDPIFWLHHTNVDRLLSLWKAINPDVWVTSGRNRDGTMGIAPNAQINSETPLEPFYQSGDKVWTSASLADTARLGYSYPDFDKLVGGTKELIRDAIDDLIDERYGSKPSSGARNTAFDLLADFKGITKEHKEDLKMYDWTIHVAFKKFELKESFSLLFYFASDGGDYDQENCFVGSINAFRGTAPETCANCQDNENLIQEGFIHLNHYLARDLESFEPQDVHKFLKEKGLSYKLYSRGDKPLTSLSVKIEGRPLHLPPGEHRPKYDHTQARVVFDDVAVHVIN
In words: Reversible inhibition of mushroom tyrosinase diphenolase activity using L-DOPA as substrate at 0.25 to 2.0 uM.

For assay [2], the target named is T2, Tyrosinase (Agaricus bisporus, UniProt O42713).
T2 sequence (O42713 whole entry): T1 sequence (whole entry)

The target of assay [3] is T1, Tyrosinase (Agaricus bisporus). As to the kind of experiment: Inhibition of mushroom tyrosinase diphenolase activity using L-DOPA as substrate.
Assay [4] concerns the target T2, Tyrosinase. The source holds these as a separate data set.
Description: Competitive inhibition of mushroom tyrosinase polyphenol oxidase activity using L-DOPA as substrate by Dixon plot analysis
Assay [5] deals with T1, Tyrosinase (Agaricus bisporus). In words: Potency index, ratio of IC50 for kojic acid to IC50 for test compound for inhibition of mushroom tyrosinase diphenolase activity.
The target is the same in assay [6]. As to the kind of experiment: Competitive inhibition of mushroom tyrosinase diphenolase activity using L-DOPA as substrate at 1.25 to 20 uM by Lineweaver Burk plot analysis.

The source made the active and inactive calls. The calls are words filed in the database; no cut-off is given here.

With `O=C1/C(=C\c2ccc(O)c(O)c2)Cc2ccccc21`, the inhibition result in assay [1] and in assay [6] was “Active” throughout. The molecule also displayed an IC50 in assay [2] of 8.2 µM. In addition, the inhibition result in assay [3] was “Dose-dependent effect”. This molecule showed an inhibitory constant (Ki) in assay [4] of 8.7 µM. The Ratio IC50 in assay [5] amounted to 3.35.

On to `O=C1/C(=C\c2ccc(O)cc2O)Cc2ccccc21`, for which the inhibition entry in assay [1] and in assay [6] was “Active” throughout. In assay [2], this molecule gave an IC50 of 12.3 µM. The inhibition result in assay [3] is “Dose-dependent effect”. The Ki in assay [4] is 10.3 µM. Also, the Ratio IC50 in assay [5] came out at 2.23.
